# Measured values from patent US20130231346A1, “METHODS OF TREATING CANCER” (GLAXOSMITHKLINE INTELLECTUAL PROPERTY (NO.2) LIMITED, priority 2010, published 2013).
# Assays:
# [1] = test system: RAS-mutant NSCLC cell lines; test: Inhibition of cell growth (CellTiter-Glo) in panel of RAS-mutant NSCLC cell lines; details: for Response Rate (sensitivity/total lines tested), Cell growth inhibition: Ras mut NSCLC cell lines, CellTiter-Glo, 72 hours of treatment; for Single agent activity (in words): agent alone, cell growth inhibition and apoptosis
# Procedure: Cells are plated in 384-well plates at 500 cells/well in culture media appropriate for each cell type, supplemented with 10% FBS and 1% penicillin/streptomycin, and incubated overnight at 37° C., 5% CO2. Cells are treated in a grid manner with dilution of Compound A^2 (20 dilutions, including no compound, of 2-fold dilutions starting from 1-20 μM depending of compound) from left to right on 384-well plate and also treated with Compound B^2 (20 dilutions, including no compound, of 2-fold dilutions starting from 1-20 μM depending of compound) from top to bottom on 384-well plate and incubated as above for a further 72 hours. In some instances compounds are added in a staggered manner and incubation time can be extended up to 7 days. Cell growth is measured using CellTiter-Glo® reagent according to the manufacturer's protocol and signals are read on a PerkinElmer EnVision™ reader set for luminescence mode with a 0.5-second read.
# Results are expressed as a percentage of the t=0 value and plotted against compound(s) concentration. The t=0 value is normalized to 100% and represents the number of cells present at the time of compound addition. The cellular response is determined for each compound and/or compound combination using a 4- or 6-parameter curve fit of cell viability against concentration using the IDBS XLfit plug-in for Microsoft Excel software and determining the concentration required for 50% inhibition of cell growth (gIC50). Background correction is made by subtraction of values from wells containing no cells.
# (§1) A panel of 24 non-small cell lung carcinoma (NSCLC) cell lines harboring RAS mutations was analyzed for genomic alterations, gene expression profiling and protein phosphorylation in MAPK and PI3K pathways. Inhibition of cell growth and induction of apoptosis were determined by CellTiter-Glo® and caspase 3/7 activation assays after 72 and 24 hours of treatment, respectively.
# [2] = test system: RAS-mutant NSCLC cell lines; test: Induction of apoptosis (caspase 3/7 activation) in panel of RAS-mutant NSCLC cell lines; type: cell-based; details: for Response Rate (sensitivity/total lines tested), Cell Apoptosis (capsase 3/7): Ras mut NSCLC cell lines, caspase 3/7 activation, 24 hours of treatment
# Procedure: as §1
Compound,"Response Rate (sensitivity/total lines tested), Cell growth inhibition [1]","Response Rate (sensitivity/total lines tested), Cell Apoptosis (capsase 3/7) [2]",Cell growth inhibition (in words) ([1]; RAS-mutant NSCLC lines),"Apoptosis (in words) ([2]; RAS-mutant NSCLC lines, single agent)",Single agent activity (in words) ([1]; RAS-mutant NSCLC lines)
Cc1nc(Nc2ncc(C(=O)Nc3c(C)cccc3Cl)s2)cc(N2CCN(CCO)CC2)n1 [Dasatinib],20% (2/10),0% (0/10),–,–,–
Nc1nc2[nH]cc(CCc3ccc(C(=O)N[C@@H](CCC(=O)O)C(=O)O)cc3)c2c(=O)[nH]1 [Pemtrexed],38% (4/9),–,–,–,–
"COc1ncc(-c2ccc3nccc(-c4ccnnc4)c3c2)cc1NS(=O)(=O)c1ccc(F)cc1F [PI3k/mTOR inhibitor, 2,4-difluoro-N-{2-(methyloxy)-5-[4-(4-pyridazinyl)-6-quinolinyl]-3-pyridinyl}benzenesulfonamide]",69% (9/13),6% (1/16),potently inhibited cell growth,little apoptosis,–
C#Cc1cccc(Nc2ncnc3cc(OCCOC)c(OCCOC)cc23)c1 [Erlotinib],0% (0/24),0% (0/24),–,–,little or no activity
"dihydroxy-12-[(2R)-1-[(1S,3R,4R)-4-(2-hydroxyethoxy)-3-methoxycyclohexyl]propan-2-yl]-19,30-dimethoxy-15,17,21,23,29,35-hexamethyl-11,36-dioxa-4-azatricyclo[30.3.1.0^4.9]hexatriaconta-16,24,26,28-tetraene-2,3,10,14,20-pentone [Everolimus]",8% (2/24),0% (0/24),–,–,little or no activity
"Cn1ncc(Cl)c1-c1cc(C(=O)N[C@H](CN)Cc2cccc(F)c2)sc1Cl [AKT inhibitor, N-{(1S)-2-amino-1-[(3-fluorophenyl)methyl]ethyl}-5-chloro-4-(4-chloro-1-methyl-1H-pyrazol-5-yl)-2-thiophenecarboxamide]",6% (1/18),0% (0/9),–,–,little or no activity
